Laboratory results from the supplement of paper PMC10307832.

Legend:
Test in all cases: relative viability (nuclei count vs DMSO), 5 days (fraction); higher = more cells survive
NCI-H23 = system: NCI-H23
In short: (§1)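 A single step with final 0.05% Triton X-100, 1% formaldehyde and 1 ug/ml Hoechst fixed the cells and stained nuclei 5 days after treatment. Lung cancer cell lines in 1536-well plates had been treated by pin tool the day after seeding with one drug alone or a fixed anchor-drug dose plus five library-drug doses (not always all listed) in √10 steps, and nuclei were counted on 4× images. Relative viability is the ratio of nuclei in treated wells to nuclei in vehicle wells, taken as the median of duplicate plates.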

NCI-H2405 = system: NCI-H2405
In short: as §1

NCI-H3122 = system: NCI-H3122
In short: as §1

NCI-H322M = system: NCI-H322M
In short: as §1

NCI-H358 = system: NCI-H358
In short: as §1

NCI-H520 = system: NCI-H520
In short: as §1

NCI-H596 = system: NCI-H596
In short: as §1

NCI-H647 = system: NCI-H647
In short: as §1

NCI-H727 = system: NCI-H727
In short: as §1

NCI-H838 = system: NCI-H838
In short: as §1

PC-14 = system: PC-14
In short: as §1

UMC-11 = system: UMC-11
In short: as §1

**Q.** For O=C(O)CCCCC(CCSCc1ccccc1)SCc1ccccc1 (configuration not stated) [CPI-613] + CCNC(=O)c1noc(-c2cc(C(C)C)c(O)cc2O)c1-c1ccc(CN2CCOCC2)cc1 [Luminespib] (partner 0.01 µM), which relative viability (NCI-H23; first compound 158.11 µM) is on record?
**A.** The relative viability was 0.129.

**Q.** What about the relative viability (NCI-H23; first compound 500 µM) of the same molecule?
**A.** The relative viability was 0.0632.

**Q.** And the relative viability (NCI-H2405; first compound 5 µM)?
**A.** The relative viability was 0.657.

**Q.** And the relative viability (NCI-H2405; first compound 15.81 µM)?
**A.** The relative viability was 0.711.

**Q.** And the relative viability (NCI-H2405; first compound 50 µM)?
**A.** The relative viability was 0.622.

**Q.** What about the relative viability (NCI-H2405; first compound 158.11 µM) of the same molecule?
**A.** The relative viability was 0.736.

**Q.** What about the relative viability (NCI-H2405; first compound 500 µM) of the same molecule?
**A.** The relative viability was 0.727.

**Q.** And the relative viability (NCI-H3122; first compound 5 µM)?
**A.** The relative viability was 0.0787.

**Q.** And the relative viability (NCI-H3122; first compound 15.81 µM)?
**A.** The relative viability was 0.088.

**Q.** What about the relative viability (NCI-H3122; first compound 50 µM) of the same molecule?
**A.** The relative viability was 0.0889.

**Q.** What about the relative viability (NCI-H3122; first compound 158.11 µM) of the same molecule?
**A.** Its relative viability is 0.0798.

**Q.** What about the relative viability (NCI-H3122; first compound 500 µM) of the same molecule?
**A.** The relative viability was 0.0712.

**Q.** And the relative viability (NCI-H322M; first compound 5 µM)?
**A.** The relative viability was 0.777.

**Q.** What about the relative viability (NCI-H322M; first compound 15.81 µM) of the same molecule?
**A.** Its relative viability is 0.781.

**Q.** And the relative viability (NCI-H322M; first compound 50 µM)?
**A.** Its relative viability is 0.826.

**Q.** And the relative viability (NCI-H322M; first compound 158.11 µM)?
**A.** The relative viability was 0.53.

**Q.** And the relative viability (NCI-H322M; first compound 500 µM)?
**A.** Its relative viability is 0.0612.

**Q.** And the relative viability (NCI-H358; first compound 5 µM)?
**A.** The relative viability was 0.287.

**Q.** What about the relative viability (NCI-H358; first compound 15.81 µM) of the same molecule?
**A.** The relative viability was 0.249.

**Q.** What about the relative viability (NCI-H358; first compound 50 µM) of the same molecule?
**A.** The relative viability was 0.356.

**Q.** What about the relative viability (NCI-H358; first compound 158.11 µM) of the same molecule?
**A.** Its relative viability is 0.414.

**Q.** What about the relative viability (NCI-H358; first compound 500 µM) of the same molecule?
**A.** Its relative viability is 0.408.

**Q.** What about the relative viability (NCI-H520; first compound 5 µM) of the same molecule?
**A.** The relative viability was 0.196.

**Q.** And the relative viability (NCI-H520; first compound 15.81 µM)?
**A.** Its relative viability is 0.204.

**Q.** What about the relative viability (NCI-H520; first compound 50 µM) of the same molecule?
**A.** The relative viability was 0.214.

**Q.** And the relative viability (NCI-H520; first compound 158.11 µM)?
**A.** Its relative viability is 0.197.

**Q.** What about the relative viability (NCI-H520; first compound 500 µM) of the same molecule?
**A.** Its relative viability is 0.181.

**Q.** And the relative viability (NCI-H596; first compound 5 µM)?
**A.** Its relative viability is 0.954.

**Q.** What about the relative viability (NCI-H596; first compound 15.81 µM) of the same molecule?
**A.** The relative viability was 0.955.

**Q.** What about the relative viability (NCI-H596; first compound 50 µM) of the same molecule?
**A.** Its relative viability is 1.12.

**Q.** What about the relative viability (NCI-H596; first compound 158.11 µM) of the same molecule?
**A.** The relative viability was 0.168.

**Q.** What about the relative viability (NCI-H596; first compound 500 µM) of the same molecule?
**A.** The relative viability was 0.0176.

**Q.** And the relative viability (NCI-H647; first compound 5 µM)?
**A.** The relative viability was 0.133.

**Q.** What about the relative viability (NCI-H647; first compound 15.81 µM) of the same molecule?
**A.** Its relative viability is 0.152.

**Q.** What about the relative viability (NCI-H647; first compound 50 µM) of the same molecule?
**A.** Its relative viability is 0.113.

**Q.** And the relative viability (NCI-H647; first compound 158.11 µM)?
**A.** The relative viability was 0.144.

**Q.** What about the relative viability (NCI-H647; first compound 500 µM) of the same molecule?
**A.** The relative viability was 0.119.

**Q.** And the relative viability (NCI-H727; first compound 5 µM)?
**A.** Its relative viability is 0.274.

**Q.** What about the relative viability (NCI-H727; first compound 15.81 µM) of the same molecule?
**A.** The relative viability was 0.641.

**Q.** And the relative viability (NCI-H727; first compound 50 µM)?
**A.** Its relative viability is 0.286.

**Q.** What about the relative viability (NCI-H727; first compound 158.11 µM) of the same molecule?
**A.** Its relative viability is 0.188.

**Q.** What about the relative viability (NCI-H727; first compound 500 µM) of the same molecule?
**A.** The relative viability was 0.115.

**Q.** And the relative viability (NCI-H838; first compound 5 µM)?
**A.** The relative viability was 0.249.

**Q.** And the relative viability (NCI-H838; first compound 15.81 µM)?
**A.** Its relative viability is 0.243.

**Q.** What about the relative viability (NCI-H838; first compound 50 µM) of the same molecule?
**A.** The relative viability was 0.24.

**Q.** What about the relative viability (NCI-H838; first compound 158.11 µM) of the same molecule?
**A.** Its relative viability is 0.122.

**Q.** And the relative viability (NCI-H838; first compound 500 µM)?
**A.** Its relative viability is 0.0891.

**Q.** And the relative viability (PC-14; first compound 5 µM)?
**A.** Its relative viability is 0.158.

**Q.** What about the relative viability (PC-14; first compound 15.81 µM) of the same molecule?
**A.** Its relative viability is 0.185.

**Q.** What about the relative viability (PC-14; first compound 50 µM) of the same molecule?
**A.** The relative viability was 0.167.

**Q.** And the relative viability (PC-14; first compound 158.11 µM)?
**A.** The relative viability was 0.129.

**Q.** And the relative viability (PC-14; first compound 500 µM)?
**A.** Its relative viability is 0.0407.

**Q.** What about the relative viability (UMC-11; first compound 5 µM) of the same molecule?
**A.** The relative viability was 0.977.

**Q.** And the relative viability (UMC-11; first compound 15.81 µM)?
**A.** The relative viability was 1.02.

**Q.** What about the relative viability (UMC-11; first compound 50 µM) of the same molecule?
**A.** Its relative viability is 0.955.

**Q.** And the relative viability (UMC-11; first compound 158.11 µM)?
**A.** The relative viability was 0.148.

**Q.** What about the relative viability (UMC-11; first compound 500 µM) of the same molecule?
**A.** The relative viability was 0.112.
